This is an account of results in patent US9950004B2, “Treatment and prevention of learning and memory disorders” (priority 2012, dated 2018).

Experiment [1] deals with micro-capillary blood flow to skin. The experiment is described as follows: Laser Doppler study, closed Hilltop chamber on forearm, three human female subjects (Example 6). The class given is in vivo. Conditions: 1/10% in alcohol applied to the skin. An excerpt: The formulation used in these studies contained nitric oxide dispersed in a lipid matrix. […] Nitric oxide is a very rapid acting molecule, and these studies used a system that employed laser Doppler with a covered chamber. The formulation was placed into the chamber and then attached to the skin by an adhesive layer on the covering. This provided a stable measuring device as determined by multiple normal evaluations of the capillary blood flow without treatment of nitric oxide.
A known positive control, methyl nicotinate, was applied to the skin at a concentration of 1/10% in alcohol. […] The vascular dynamics are such that when the blood vessels dilate physical parameters follow Bernoulli's law. […] The laser Doppler device accurately measured these parameters.
In these studies, the participants were healthy females aged 30 to 55 years. They were in good health as determined by the medical history and were not taking any prescription medications. All study participants read and signed the informed consent statement prior to any study procedures being performed. […]
A Moor Instruments DRT4 Laser Doppler Blood Flow Monitor (Devon, England) was used in these studies. The laser Doppler technique measured blood flow in the microcapillaries of the skin that are close to the skin surface and the blood flow in underlying arterioles and venules that help to regulate skin temperature. […]

The subject of experiment [2] is capillary circulation. As to the kind of experiment: Laser Doppler study of creams in five human subjects (second Example 7). The note with it: positive control formulation containing 0.1% methyl nicotinate. It counts as in vivo. An excerpt:
This example illustrates delivery of nitric oxide formulations to five human subjects, using procedures and formulations similar to those discussed in Example 6. Each person served as their own control for the testing. A Moor Instruments Laser Doppler was used to determine circulation. […] The formulations used produce positive, almost immediate results when applied to the skin which, in these studies, was manifested by vasodilatation of the cutaneous vascular system.
For each subject, the following creams were applied: a negative control formulation (containing no NO), 0.010 gram of a 10,000 ppm NO formulation, 0.020 gram of a 10,000 ppm NO formulation, and a positive control formulation containing 0.1% methyl nicotinate. The formulations were prepared using procedures similar to those discussed in Example 1.

Structures are written as SMILES.

On to `COC(=O)c1cccnc1` [methyl nicotinate], for which the “vasodilator response (positive control)” value in experiment [1] was “rapid response typical of the vasodilator”. Further, in experiment [2], the vasodilatation entry was “vasodilatation was observed”.
